According to ChEMBL document CHEMBL2331247, “Anti-inflammatory norditerpenoids from the soft coral Sinularia maxima” (Bioorg Med Chem Lett, 2013):

What was measured:
Type in all cases: functional
[1] = Antiinflammatory activity against in C57BL/6 mouse BMDC assessed as inhibition of LPS-stimulated TNFalpha production compound pre-incubated for 1 hr before LPS challenge by ELISA
[2] = Antiinflammatory activity against in C57BL/6 mouse BMDC assessed as inhibition of LPS-stimulated IL6 production compound pre-incubated for 1 hr before LPS challenge by ELISA
[3] = Antiinflammatory activity against in C57BL/6 mouse BMDC assessed as inhibition of LPS-stimulated IL12 production compound pre-incubated for 1 hr before LPS challenge by ELISA

Structure (SMILES) | IC50 [1] | IC50 [2] | IC50 [3]
C=C(C)[C@H]1CCC2=C[C@@H](C[C@@]3(C)CC(=O)[C@H](CC(=O)C1)O3)OC2=O | > 100 µM | > 100 µM | > 100 µM
C=C(C)[C@@H]1CC(=O)CC2=C(C1)[C@]1(O)C(=O)O[C@@H]3C[C@](C)(O)[C@H](C2=O)[C@@H]31 | > 100 µM | > 100 µM | > 100 µM
C=C(C)[C@@H]1CC(=O)[C@H]2[C@H](C1)[C@@H]1C(=O)O[C@@H]3C[C@@]4(C)O[C@H]2C(=O)[C@@H]4[C@H]13 [INELEGANOLIDE] | > 100 µM | > 100 µM | > 100 µM
C[S+]([O-])c1ccc(-c2nc(-c3ccc(F)cc3)c(-c3ccncc3)[nH]2)cc1 (centres undefined) [SB-203580] | 7.37 µM | 3.56 µM | 5.67 µM
C=C(C)[C@@H]1CC(=O)CC2=C(C1)[C@@H]1C(=O)O[C@@H]3C[C@](C)(O)[C@H](C2=O)[C@H]13 [SCABROLIDE A] | > 100 µM | 69.9 µM | 23.5 µM

Results, then the compound that gave them:

IC50 [1] | IC50 [2] | IC50 [3] | Structure (SMILES)
> 100 µM | 13.1 µM | 5.3 µM | C=C(C)[C@@H]1CC(=O)C[C@@H]2O[C@](C)(CC2=O)C[C@@H]2C=C(C(=O)O2)[C@H](OC)C1
> 100 µM | > 100 µM | > 100 µM | C=C(C)[C@H]1C/C=C(\C(=O)OC)CC(=O)C[C@@]2(C)CC(=O)[C@@H](CC(=O)C1)O2 [NORCEMBRENE 5]
> 100 µM | > 100 µM | > 100 µM | C=C(C)[C@@H]1CC(=O)CC2=C(C1)[C@@H]1C(=O)O[C@@H]3CC(C)=C(C2=O)[C@H]13 [YONAROLIDE]
